Data as given in paper PMC8766756, “Insights on Cancer Cell Inhibition, Subcellular Activities, and Kinase Profile of Phenylacetamides Pending 1H-Imidazol-5-One Variants” (Frontiers in Pharmacology, 2022).
Where “and” joins values, the source holds several entries; their conditions need not be identical. Equal entries are not always repeated.

Legend:
Assay in all cases: PamChip tyrosine kinase microarray
Type in all cases: biochemical
Conditions in all cases: 0.1 µM, HL60 lysate
[1] = molecular target: T1, FGFR3 (P22607) (Homo sapiens, UniProt P22607)
T1 construct: purchased PamGene (PamChip PTK array, Upstream Kinase Analysis)
T1 sequence (P22607 23-806): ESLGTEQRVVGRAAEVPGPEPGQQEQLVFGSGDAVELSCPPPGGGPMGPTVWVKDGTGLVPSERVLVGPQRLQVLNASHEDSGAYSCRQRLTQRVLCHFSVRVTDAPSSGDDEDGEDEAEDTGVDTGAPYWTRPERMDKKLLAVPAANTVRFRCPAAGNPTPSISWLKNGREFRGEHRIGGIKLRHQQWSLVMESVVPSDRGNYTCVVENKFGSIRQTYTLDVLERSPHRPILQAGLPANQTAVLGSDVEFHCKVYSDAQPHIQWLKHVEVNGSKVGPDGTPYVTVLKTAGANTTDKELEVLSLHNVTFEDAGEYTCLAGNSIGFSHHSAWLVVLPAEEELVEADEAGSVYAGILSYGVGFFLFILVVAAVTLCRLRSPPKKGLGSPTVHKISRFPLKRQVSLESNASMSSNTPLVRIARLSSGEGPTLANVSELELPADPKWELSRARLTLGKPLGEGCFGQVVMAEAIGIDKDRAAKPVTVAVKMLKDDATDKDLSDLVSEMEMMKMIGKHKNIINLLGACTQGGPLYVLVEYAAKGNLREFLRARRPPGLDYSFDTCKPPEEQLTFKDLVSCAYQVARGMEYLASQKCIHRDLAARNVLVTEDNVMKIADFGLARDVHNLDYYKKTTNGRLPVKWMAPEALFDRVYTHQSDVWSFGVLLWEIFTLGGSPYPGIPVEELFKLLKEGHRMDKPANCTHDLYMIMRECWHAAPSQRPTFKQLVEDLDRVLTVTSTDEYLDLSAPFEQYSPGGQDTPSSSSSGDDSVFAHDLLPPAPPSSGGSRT
How it was run: (§1)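 HL60 (AML) cell lysate was spiked with compound at 0.001, 0.01, 0.1, 1, 10 and 50 µM, or 2% v/v DMSO as control, then profiled in technical replicates on a tyrosine kinase peptide array of 196 phosphosites. Kinase activity was inferred from peptide-set changes using an upstream kinase tool.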

[2] = molecular target: T2, HER4 (Q15303) (Homo sapiens, UniProt Q15303)
T2 construct: purchased PamGene (PamChip PTK array, Upstream Kinase Analysis)
T2 sequence (Q15303 26-1308): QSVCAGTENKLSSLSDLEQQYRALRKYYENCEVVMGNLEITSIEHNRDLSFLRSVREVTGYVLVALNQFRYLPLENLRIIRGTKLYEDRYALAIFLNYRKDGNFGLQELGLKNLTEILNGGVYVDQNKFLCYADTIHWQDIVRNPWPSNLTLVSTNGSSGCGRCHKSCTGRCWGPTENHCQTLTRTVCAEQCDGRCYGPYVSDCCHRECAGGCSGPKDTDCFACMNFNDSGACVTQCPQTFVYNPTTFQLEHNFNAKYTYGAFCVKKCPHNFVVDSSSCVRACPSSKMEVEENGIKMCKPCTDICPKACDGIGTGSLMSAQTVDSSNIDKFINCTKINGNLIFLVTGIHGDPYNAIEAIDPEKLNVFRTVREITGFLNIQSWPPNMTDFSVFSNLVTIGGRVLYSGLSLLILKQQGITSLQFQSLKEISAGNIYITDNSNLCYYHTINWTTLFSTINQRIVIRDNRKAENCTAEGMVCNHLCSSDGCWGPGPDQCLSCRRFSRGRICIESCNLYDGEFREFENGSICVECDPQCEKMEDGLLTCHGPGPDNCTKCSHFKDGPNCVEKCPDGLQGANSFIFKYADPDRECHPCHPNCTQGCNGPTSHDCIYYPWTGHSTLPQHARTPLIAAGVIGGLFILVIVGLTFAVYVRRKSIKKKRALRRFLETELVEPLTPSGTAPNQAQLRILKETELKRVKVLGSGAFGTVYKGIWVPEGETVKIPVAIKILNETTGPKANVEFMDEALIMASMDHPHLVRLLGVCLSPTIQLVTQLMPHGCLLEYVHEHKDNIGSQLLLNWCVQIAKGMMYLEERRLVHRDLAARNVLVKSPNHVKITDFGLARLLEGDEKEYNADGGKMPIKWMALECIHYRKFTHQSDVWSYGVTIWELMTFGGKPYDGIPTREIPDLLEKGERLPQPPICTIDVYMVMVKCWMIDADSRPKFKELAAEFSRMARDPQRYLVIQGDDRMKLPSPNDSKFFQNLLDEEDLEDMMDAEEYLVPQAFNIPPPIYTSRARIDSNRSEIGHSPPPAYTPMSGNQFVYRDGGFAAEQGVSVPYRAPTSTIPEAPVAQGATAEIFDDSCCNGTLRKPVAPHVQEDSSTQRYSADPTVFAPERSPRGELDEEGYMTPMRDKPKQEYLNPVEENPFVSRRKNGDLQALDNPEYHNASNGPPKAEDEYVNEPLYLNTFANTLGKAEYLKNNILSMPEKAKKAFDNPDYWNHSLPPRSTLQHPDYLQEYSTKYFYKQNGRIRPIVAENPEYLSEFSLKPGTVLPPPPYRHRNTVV
How it was run: as §1

[3] = molecular target: T3, LTK (P29376) (Homo sapiens, UniProt P29376)
T3 construct: purchased PamGene (PamChip PTK array, Upstream Kinase Analysis)
T3 sequence (P29376 17-864): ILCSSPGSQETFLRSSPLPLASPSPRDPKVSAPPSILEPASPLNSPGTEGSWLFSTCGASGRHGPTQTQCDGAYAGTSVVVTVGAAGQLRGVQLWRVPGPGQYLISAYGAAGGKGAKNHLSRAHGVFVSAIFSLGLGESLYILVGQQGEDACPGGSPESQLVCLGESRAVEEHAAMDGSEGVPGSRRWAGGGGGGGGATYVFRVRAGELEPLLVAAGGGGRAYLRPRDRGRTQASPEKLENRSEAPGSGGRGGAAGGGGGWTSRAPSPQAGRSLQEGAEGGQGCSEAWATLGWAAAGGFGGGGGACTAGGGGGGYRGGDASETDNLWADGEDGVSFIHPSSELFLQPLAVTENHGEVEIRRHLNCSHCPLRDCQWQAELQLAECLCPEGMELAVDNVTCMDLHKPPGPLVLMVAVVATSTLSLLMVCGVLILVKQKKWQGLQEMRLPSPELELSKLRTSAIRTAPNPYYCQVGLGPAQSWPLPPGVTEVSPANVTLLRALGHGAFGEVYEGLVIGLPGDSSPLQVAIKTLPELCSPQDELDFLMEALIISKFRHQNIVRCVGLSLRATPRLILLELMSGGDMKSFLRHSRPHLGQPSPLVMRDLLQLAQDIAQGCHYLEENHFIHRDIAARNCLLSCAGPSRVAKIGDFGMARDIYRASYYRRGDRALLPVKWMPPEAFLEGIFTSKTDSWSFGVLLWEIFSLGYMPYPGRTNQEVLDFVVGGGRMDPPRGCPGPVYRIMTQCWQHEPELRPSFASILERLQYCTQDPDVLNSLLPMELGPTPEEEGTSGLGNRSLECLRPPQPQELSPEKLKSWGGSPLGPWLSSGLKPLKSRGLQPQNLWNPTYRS
How it was run: as §1

[4] = molecular target: T4, Lck (P06239) (Homo sapiens, UniProt P06239)
T4 construct: purchased PamGene (PamChip PTK array, Upstream Kinase Analysis)
T4 sequence (P06239 whole entry): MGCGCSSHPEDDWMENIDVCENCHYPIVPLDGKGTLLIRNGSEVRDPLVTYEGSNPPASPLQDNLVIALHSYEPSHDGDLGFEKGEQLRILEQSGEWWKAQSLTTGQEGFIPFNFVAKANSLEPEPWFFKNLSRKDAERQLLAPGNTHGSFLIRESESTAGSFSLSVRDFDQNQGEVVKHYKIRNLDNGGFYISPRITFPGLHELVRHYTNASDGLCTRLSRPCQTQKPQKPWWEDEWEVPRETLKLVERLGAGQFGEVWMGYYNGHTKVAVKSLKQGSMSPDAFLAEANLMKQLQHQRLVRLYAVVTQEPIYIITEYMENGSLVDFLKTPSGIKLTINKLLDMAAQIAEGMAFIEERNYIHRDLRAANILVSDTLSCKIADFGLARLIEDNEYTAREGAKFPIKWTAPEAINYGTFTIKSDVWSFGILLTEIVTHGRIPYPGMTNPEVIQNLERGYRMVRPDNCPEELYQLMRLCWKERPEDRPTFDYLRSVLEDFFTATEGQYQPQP
How it was run: as §1

[5] = molecular target: T5, Ros (P08922) (Homo sapiens, UniProt P08922)
T5 construct: purchased PamGene (PamChip PTK array, Upstream Kinase Analysis)
How it was run: as §1

[6] = molecular target: T6, Src (P12931) (Homo sapiens, UniProt P12931)
T6 construct: purchased PamGene (PamChip PTK array, Upstream Kinase Analysis)
T6 sequence (P12931 whole entry): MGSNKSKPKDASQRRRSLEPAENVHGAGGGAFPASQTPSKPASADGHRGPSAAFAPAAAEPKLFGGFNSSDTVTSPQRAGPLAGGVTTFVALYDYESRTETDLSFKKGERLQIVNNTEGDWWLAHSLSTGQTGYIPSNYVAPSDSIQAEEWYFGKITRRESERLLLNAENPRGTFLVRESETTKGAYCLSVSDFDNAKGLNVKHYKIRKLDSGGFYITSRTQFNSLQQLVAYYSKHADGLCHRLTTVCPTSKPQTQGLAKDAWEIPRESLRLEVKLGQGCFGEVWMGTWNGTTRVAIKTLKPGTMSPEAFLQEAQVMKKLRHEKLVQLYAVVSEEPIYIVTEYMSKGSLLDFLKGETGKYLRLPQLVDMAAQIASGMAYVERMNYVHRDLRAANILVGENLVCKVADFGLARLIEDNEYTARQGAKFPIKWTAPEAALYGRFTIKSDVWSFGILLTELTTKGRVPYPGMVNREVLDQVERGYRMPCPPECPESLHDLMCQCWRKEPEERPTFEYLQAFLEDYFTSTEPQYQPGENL
How it was run: as §1

[7] = molecular target: T7, TEC (P42680) (Homo sapiens, UniProt P42680)
T7 construct: purchased PamGene (PamChip PTK array, Upstream Kinase Analysis)
T7 sequence (P42680 1-631): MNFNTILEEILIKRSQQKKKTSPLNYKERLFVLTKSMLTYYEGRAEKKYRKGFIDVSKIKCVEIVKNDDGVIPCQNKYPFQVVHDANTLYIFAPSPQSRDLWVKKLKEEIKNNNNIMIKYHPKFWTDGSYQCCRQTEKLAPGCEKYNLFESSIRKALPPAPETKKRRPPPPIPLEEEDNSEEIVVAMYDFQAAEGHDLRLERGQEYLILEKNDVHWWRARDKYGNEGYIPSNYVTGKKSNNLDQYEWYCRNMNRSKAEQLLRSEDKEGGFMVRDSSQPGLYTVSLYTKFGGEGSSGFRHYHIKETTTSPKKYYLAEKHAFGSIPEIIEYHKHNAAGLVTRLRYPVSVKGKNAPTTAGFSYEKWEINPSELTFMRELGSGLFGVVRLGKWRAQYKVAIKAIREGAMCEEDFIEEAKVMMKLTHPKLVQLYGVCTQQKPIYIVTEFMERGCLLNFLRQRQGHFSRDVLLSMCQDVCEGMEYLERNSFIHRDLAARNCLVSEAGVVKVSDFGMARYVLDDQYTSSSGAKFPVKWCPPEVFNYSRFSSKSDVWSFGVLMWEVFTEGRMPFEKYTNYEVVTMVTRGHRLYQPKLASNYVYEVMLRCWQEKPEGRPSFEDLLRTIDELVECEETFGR
How it was run: as §1

[8] = molecular target: T8, Yes (P07947) (Homo sapiens, UniProt P07947)
T8 construct: purchased PamGene (PamChip PTK array, Upstream Kinase Analysis)
T8 sequence (P07947 whole entry): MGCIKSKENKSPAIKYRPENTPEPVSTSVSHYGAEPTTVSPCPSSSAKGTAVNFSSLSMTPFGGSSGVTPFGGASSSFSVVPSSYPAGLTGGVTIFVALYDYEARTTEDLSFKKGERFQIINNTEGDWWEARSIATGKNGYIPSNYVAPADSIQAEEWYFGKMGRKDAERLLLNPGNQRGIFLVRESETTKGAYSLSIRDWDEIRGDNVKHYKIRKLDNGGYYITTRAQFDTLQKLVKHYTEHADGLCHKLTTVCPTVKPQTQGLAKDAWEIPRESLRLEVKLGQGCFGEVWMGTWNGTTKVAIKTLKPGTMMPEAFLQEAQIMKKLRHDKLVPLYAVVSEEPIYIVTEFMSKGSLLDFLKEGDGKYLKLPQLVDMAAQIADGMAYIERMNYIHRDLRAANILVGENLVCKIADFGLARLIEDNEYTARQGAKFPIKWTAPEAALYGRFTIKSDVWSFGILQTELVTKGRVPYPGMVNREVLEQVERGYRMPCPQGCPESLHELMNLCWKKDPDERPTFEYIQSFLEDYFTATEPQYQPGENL
How it was run: as §1

COc1ccc(/C=C2\N=C(C)N(c3ccc(CC(=O)NCc4ccccc4)cc3)C2=O)cc1 [Compound 4c, (Z)-N-Benzyl-2-(4-(4-(4-methoxybenzylidene)-2-methyl-5-oxo-4,5-dihydro-1H-imidazol-1-yl)phenyl)acetamide]
Mean Final score (Kinase score) [1]: 2.271 | Mean Kinase Statistic [1]: -1.175 | Mean Significance Score [1]: 1.984 | Mean Specificity Score [1]: 0.3218 | Mean Final score (Kinase score) [2]: 2.227 | Mean Kinase Statistic [2]: -1.109 | Mean Significance Score [2]: 2.048 | Mean Specificity Score [2]: 0.2042 | Mean Final score (Kinase score) [3]: 1.968 | Mean Kinase Statistic [3]: -1.055 | Mean Significance Score [3]: 1.724 | Mean Specificity Score [3]: 0.1654 | Mean Significance Score [4]: 2.048 | Mean Specificity Score [4]: 0.6669 | Mean Final score (Kinase score) ([4]; listed as KIM-161): 2.76 and 2.758 | Mean Significance Score [5]: 1.955 | Mean Specificity Score [5]: 0.9862 | Mean Final score (Kinase score) ([5]; listed as KIM-161): 2.90 and 2.9031 | Mean Significance Score [6]: 2.048 | Mean Specificity Score [6]: 0.05941 | Mean Final score (Kinase score) ([6]; listed as KIM-161): 2.16 and 2.164 | Mean Final score (Kinase score) [7]: 2.197 | Mean Kinase Statistic [7]: -1.125 | Mean Significance Score [7]: 2.048 | Mean Specificity Score [7]: 0.171 | Mean Final score (Kinase score) [8]: 1.8671 | Mean Kinase Statistic [8]: -0.9897 | Mean Significance Score [8]: 1.824 | Mean Specificity Score [8]: 0.04992
